Reference: publication PMC9459842, “Chemical Profiling and Biological Activities of Pelargonium graveolens Essential Oils at Three Different Phenological Stages” (Plants, 2022)
Marks after values point to notes of the source that are not given here.

Experiments:
DPPH antioxidant assay = assay type: biochemical; details: n = 3
Experimental: (§1) The antioxidant activity of PGEO was evaluated by using […] complementary methods, DPPH, FRAP, ABTS, and H2O2 assays, according to the previously published protocols. The results are expressed as the concentration of PGEO providing 50% inhibition (IC50) and calculated by plotting the inhibition degrees against the essential oil concentrations. Trolox and ascorbic acid were used as positive controls. The assays were carried out in triplicate, and the IC50 values were presented as means ± SD.

ABTS antioxidant assay = assay type: biochemical; details: n = 3
Experimental: as §1

FRAP antioxidant assay = assay type: biochemical; details: n = 3
Experimental: as §1

H2O2 antioxidant assay = assay type: biochemical; details: n = 3
Experimental: as §1

[1] = test system: Escherchia coli ATCC 25922; assay: disc diffusion assay; assay type: cell-based, Escherichia coli; details: E. coli ATCC 25922; 50 μL of oil/well, chloramphenicol 30 µg; includes 6 mm well
Experimental: (§2) The antibacterial activity was evaluated against the following six bacterial strains representing Gram-positive and Gram-negative bacteria: Escherichia coli ATCC 25922, Proteus mirabilis ATCC 25933, Salmonella Typhimurium ATCC 700408, Bacillus subtilis ATCC 6633, Staphylococcus aureus ATCC 29213, and Listeria monocytogenes ATCC 13932. The tested bacterial strains were prepared by inoculating a loopful from the frozen stock (−20 °C) in Mueller–Hinton Agar (Biokar, Beauvais, France) and incubated at 37 °C for 24 h under an aerobic environment.
(§3) The primary screening of the antimicrobial activity of the studied samples was evaluated by the disc diffusion method according to the previously published investigation. Briefly, the culture suspension of each species was inoculated in Mueller–Hinton Agar (Biolife, Italiana, Milano-Italy). […] Chloramphenicol (30 µg) was used as a positive control for bacteria strains, while dimethylsulfoxide (DMSO) (10 µL; 5%) was used as a negative control. The plates were incubated at the following growth conditions; 37 °C for 24 h, 25 °C for 48 h, and 25 °C for 72 h for bacteria, yeast, and fungi, respectively. After incubation, the inhibitory diameters were measured in millimeters, and the results were expressed as means ± Standard Deviation of three replicates.

[2] = test system: Listeria monocytogenes ATCC 13932; assay: disc diffusion assay; assay type: cell-based; details: L. monocytogenes ATCC 13932; 50 μL of oil/well, chloramphenicol 30 µg; includes 6 mm well
Experimental: as §2, §3

[3] = test system: Proteus mirabilis ATCC 25933; assay: disc diffusion assay; assay type: cell-based; details: P. mirabilis ATCC 25933; 50 μL of oil/well, chloramphenicol 30 µg; includes 6 mm well
Experimental: as §2, §3

[4] = test system: Salmonella Typhimurium ATCC700408; assay: disc diffusion assay; assay type: cell-based; details: S. Typhimurium ATCC700408; 50 μL of oil/well, chloramphenicol 30 µg; includes 6 mm well
Experimental: as §2, §3

[5] = test system: Bacillus subtilis ATCC 6633; assay: disc diffusion assay; assay type: cell-based; details: B. subtilis ATCC 6633; 50 μL of oil/well, chloramphenicol 30 µg; includes 6 mm well
Experimental: as §2, §3

[6] = test system: carrageenan-induced edema; parameters: method as in PMID 12587692; details: 32, 64, and 96 mg/kg; cited from earlier work
[7] = test system: rats treated with ethanol for the induction of gastric ulcers; parameters: method as in PMID 24466200; details: 50 mg/kg; cited from earlier work
monocytes = test system: monocytes; parameters: method as in PMID 9889172; details: in vitro; cited from earlier work
diabetic animals = test system: diabetic animals; parameters: method as in PMID 28549291; details: daily doses 25, 50, and 100 mg/kg b.w.; cited from earlier work
[8] = test system: occlusion of the middle cerebral artery in male rats; details: intraperitoneal 100 mg/kg, cited from earlier work
[9] = test system: inflammatory responses by lipopolysaccharide (LPS) in mice; details: cited from earlier work
COX-2 = test system: COX-2; parameters: method as in PMID 26721216; details: cited from earlier work
[10] = test system: alloxan-induced diabetic mice; parameters: method as in doi:10.23893/1307-2080.APS.05522; details: 2 and 24 h after the treatment; cited from earlier work
[11] = test system: catabolic and inflammatory pathways induced by IL-1β; parameters: method as in PMID 24455984; details: in vitro; cited from earlier work

**Q.** For `O=C1O[C@H]([C@@H](O)CO)C(O)=C1O` [Ascorbic Acid, Ascorbic acid], which “antioxidant activity IC50, DPPH” value (DPPH antioxidant assay) is on record?
**A.** 15.13 ± 0.04 ^a μg/mL

**Q.** And the “antioxidant activity IC50, ABTS” value (ABTS antioxidant assay)?
**A.** 42.22 ± 0.05 ^a μg/mL

**Q.** And the “antioxidant activity IC50, FRAP” value (FRAP antioxidant assay)?
**A.** 31.47 ± 1.07 ^a μg/mL

**Q.** And the “antioxidant activity IC50, H2O2” value (H2O2 antioxidant assay)?
**A.** 23.34 ± 0.03 ^a μg/mL

**Q.** Which results are given for `O=C(N[C@H](CO)[C@H](O)c1ccc([N+](=O)[O-])cc1)C(Cl)Cl` [Chloramphenicol]?
**A.** inhibitory diameter [1]: 22.47 ± 0.21 mm; inhibitory diameter [2]: 29.07 ± 0.58 mm; inhibitory diameter [3]: 21.27 ± 0.21 mm; inhibitory diameter [4]: 13.17 ± 0.25 mm; inhibitory diameter [5]: 15.87 ± 0.21 mm

**Q.** With `Cc1c(C)c2c(c(C)c1O)CCC(C)(C(=O)O)O2` (stereo not shown) [Trolox] as the compound, how does the “antioxidant activity IC50, DPPH” value (DPPH antioxidant assay) read?
**A.** 24.31 ± 0.02 ^b μg/mL

**Q.** What about the “antioxidant activity IC50, ABTS” value (ABTS antioxidant assay) of the same compound?
**A.** 61.48 ± 1.32 ^b μg/mL

**Q.** What about the “antioxidant activity IC50, FRAP” value (FRAP antioxidant assay) of the same compound?
**A.** 48.25 ± 0.05 ^b μg/mL

**Q.** For `C=CC(C)(CCC=C(C)C)OC(C)=O` (stereo not shown) [linalyl acetate], which carrageenan-induced edema [6] is on record?
**A.** remarkable reduction

**Q.** What does the source list for `CC1CCC(C(C)C)C(O)C1` (stereo not shown) [menthol]?
**A.** levels of IL-6 and TNF-α [7]: reduced the levels of IL-6 and TNF-α; production of IL-1, PGE2, and LTB4 (monocytes): inhibit the production of inflammation mediators; glycosylated hemoglobin, blood glucose levels (diabetic animals): decreased glycosylated hemoglobin, blood glucose levels

**Q.** Which results are given for `CC1=CCC2CC1C2(C)C` (stereo not drawn) [α-pinene]?
**A.** expression of IL-1 and TNF-α [8]: decreased; concentration of IL-6, NO, and malondialdehyde (MDA) ([8]; striatum, cortex, and hippocampus): decreased; synthesis of nitric oxide (NO), TNF-α, and IL-6 [9]: decrease the synthesis of nitric oxide (NO), TNF-α, and IL-6; COX-2 overexpression (COX-2): potent effect on COX-2 overexpression; fasting blood glucose levels [10]: reduce fasting blood glucose levels; expression of catabolic and inflammatory genes, activation of NF-κB and JNK [11]: strongly inhibits
